Entries after “also recorded” stand apart in the source; their conditions may differ.
Legend:
[1] = test system: sleep-deprived healthy volunteers; experiment: Karolinska Sleepiness Scale (KSS) in sleep-deprived healthy volunteers; assay type: in vivo, human
Method: (§1) During the day before dosing on Day 1, participants were administered the KSS at scheduled timepoints. A practice MWT session was performed on Day 1 treatment period 1 (only once during the entire study) to familiarize subjects with the procedures. Study drug was administered in the clinic in the evening on Day 1 of each treatment period. Subjects underwent the MWT and KSS at specified timepoints after the start of the infusion. Subjects were required to stay awake between the MWT tests. Following completion of the IV infusion on Day 2, subjects underwent an additional MWT test. When the final MWT test and cognitive testing were completed, subjects were allowed to sleep (recovery sleep) for approximately 6 hours. PSG recording was collected during this time. Subjects were discharged from the unit after completion on Day 2 with continuing actigraphy upon discharge (to begin on Day −6 before the next treatment period). The interval between each subsequent treatment period was at least 7 days to ensure that the subject's circadian rhythm had returned to a normal cycle. Subject's vital signs, including BP, were monitored during the dosing and testing period. Blood samples for determination of Compound A plasma concentrations were collected at specified timepoints on Days 1 and 2 of each treatment period. Subjects completed the Columbia-Suicide Severity Rating Scale (C-SSRS) during screening, before study drug administration, and before discharge on Day 2 of each treatment period.
Secondary endpoints: • PK parameters calculated from plasma concentrations of Compound A. • Scores for sleepiness on the Karolinska Sleepiness Scale (KSS).
The secondary efficacy endpoint was sleepiness/alertness as assessed by KSS at 14, 10, 6, and 2 hours predose (approximately between 7:45 AM to 7:45 PM); 2, 2.75, 4.75, 6.75, and 8.75 hours post infusion start (approximately between mid-night to 7 AM in the morning); and at 1.75 hours post infusion end. A higher value indicates more sleepiness, a lower value indicates more alertness. Prior to infusion, there were no statistically significant differences at any time point of observation in KSS score for Compound A 44 and 112 mg treatments when compared to placebo. […] On the average, for modafinil and Compound A 44 and 112 mg, there were about 1.6 to 3.7 points increase in the KSS postdose/the infusion start, relative to that prior to dosing during the daytime. However, for placebo, the increase in the average KSS is 4.9.

[2] = test system: sleep-deprived healthy volunteers; experiment: Safety/tolerability of a single dose in sleep-deprived healthy adults; assay type: in vivo, human
Method: as §1
Safety endpoints: adverse events (AEs), physical examinations, vital signs, 12-lead electrocardiograms (ECGs), clinical laboratory evaluations (hematology, blood chemistry, and urinalysis), drug-liking visual analogue scale, and Profile of Mood States.

[3] = Compound A 44 mg, 1.75 HOURS POST INFUSION END
[4] = Compound A 44 mg, 2 HOURS PREDOSE
[5] = Compound A 44 mg, 2.75 HOURS POST INFUSION START
[6] = Compound A 44 mg, 4.75 HOURS POST INFUSION START
[7] = Compound A 44 mg, 6 HOURS PREDOSE
[8] = Compound A 44 mg, 6.75 HOURS POST INFUSION START
[9] = Compound A 44 mg, 8.75 HOURS POST INFUSION START
[10] = Compound A 44 mg, 10 HOURS PREDOSE
[11] = Compound A 44 mg, 14 HOURS PREDOSE
[12] = Compound A 112 mg, 1.75 HOURS POST INFUSION END
[13] = Compound A 112 mg, 2 HOURS PREDOSE
[14] = Compound A 112 mg, 2.75 HOURS POST INFUSION START
[15] = Compound A 112 mg, 4.75 HOURS POST INFUSION START
[16] = Compound A 112 mg, 6 HOURS PREDOSE
[17] = Compound A 112 mg, 6.75 HOURS POST INFUSION START
[18] = Compound A 112 mg, 8.75 HOURS POST INFUSION START
[19] = Compound A 112 mg, 10 HOURS PREDOSE
[20] = Compound A 112 mg, 14 HOURS PREDOSE
[21] = HD: Compound A 112 mg, 1.75 HOURS POST INFUSION END
[22] = HD: Compound A 112 mg, 2 HOURS PREDOSE
[23] = HD: Compound A 112 mg, 2.75 HOURS POST INFUSION START
[24] = HD: Compound A 112 mg, 4.75 HOURS POST INFUSION START
[25] = HD: Compound A 112 mg, 6 HOURS PREDOSE
[26] = HD: Compound A 112 mg, 6.75 HOURS POST INFUSION START
[27] = HD: Compound A 112 mg, 8.75 HOURS POST INFUSION START
[28] = HD: Compound A 112 mg, 10 HOURS PREDOSE
[29] = HD: Compound A 112 mg, 14 HOURS PREDOSE
[30] = HD: Compound A 112 mg, DELTA: AVERAGE POST - AVERAGE PRIOR
[31] = LD: Compound A 44 mg, 1.75 HOURS POST INFUSION END
[32] = LD: Compound A 44 mg, 2 HOURS PREDOSE
[33] = LD: Compound A 44 mg, 2.75 HOURS POST INFUSION START
[34] = LD: Compound A 44 mg, 4.75 HOURS POST INFUSION START
[35] = LD: Compound A 44 mg, 6 HOURS PREDOSE
[36] = LD: Compound A 44 mg, 6.75 HOURS POST INFUSION START
[37] = LD: Compound A 44 mg, 8.75 HOURS POST INFUSION START
[38] = LD: Compound A 44 mg, 10 HOURS PREDOSE
[39] = LD: Compound A 44 mg, 14 HOURS PREDOSE
[40] = LD: Compound A 44 mg, DELTA: AVERAGE POST - AVERAGE PRIOR

SMILES: COC(=O)N1CCC[C@H](NS(C)(=O)=O)[C@@H]1CO[C@H]1CC[C@@H](c2ccccc2)CC1 [Compound A, methyl (2R,3S)-3-((methylsulfonyl)amino)-2-(((cis-4-phenylcyclohexyl)oxy)methyl)piperidine-1-carboxylate]
- Difference between average KSS score post and prior to infusion start, LS Mean (SE) ([1]; Compound A 44 mg): 3.68 (0.332)
- KSS Max [1, 3]: 9
- KSS Mean (SD) [1, 3]: 8.4 (0.86)
- KSS Median [1, 3]: 9.0
- KSS Min [1, 3]: 6
- KSS Max [1, 4]: 9
- KSS Mean (SD) [1, 4]: 4.0 (2.30)
- KSS Median [1, 4]: 3.5
- KSS Min [1, 4]: 1
- KSS Max [1, 5]: 8
- KSS Mean (SD) [1, 5]: 4.8 (1.92)
- KSS Median [1, 5]: 4.5
- KSS Min [1, 5]: 1
- KSS Max [1, 6]: 9
- KSS Mean (SD) [1, 6]: 6.4 (2.12)
- KSS Median [1, 6]: 6.5
- KSS Min [1, 6]: 2
- KSS Max [1, 7]: 7
- KSS Mean (SD) [1, 7]: 2.8 (1.59)
- KSS Median [1, 7]: 2.5
- KSS Min [1, 7]: 1
- KSS Max [1, 8]: 9
- KSS Mean (SD) [1, 8]: 7.8 (0.94)
- KSS Median [1, 8]: 8.0
- KSS Min [1, 8]: 6
- KSS Max [1, 9]: 9
- KSS Mean (SD) [1, 9]: 8.1 (1.00)
- KSS Median [1, 9]: 8.0
- KSS Min [1, 9]: 5
- KSS Max [1, 10]: 7
- KSS Mean (SD) [1, 10]: 2.8 (1.40)
- KSS Median [1, 10]: 3.0
- KSS Min [1, 10]: 1
- KSS Max [1, 11]: 6
- KSS Mean (SD) [1, 11]: 2.8 (1.15)
- KSS Median [1, 11]: 3.0
- KSS Min [1, 11]: 1
- Difference between average KSS score post and prior to infusion start, LS Mean (SE) ([1]; Compound A 112 mg): 1.64 (0.332)
- KSS Max [1, 12]: 9
- KSS Mean (SD) [1, 12]: 8.0 (1.57)
- KSS Median [1, 12]: 8.5
- KSS Min [1, 12]: 3
- KSS Max [1, 13]: 6
- KSS Mean (SD) [1, 13]: 3.4 (1.76)
- KSS Median [1, 13]: 3.0
- KSS Min [1, 13]: 1
- KSS Max [1, 14]: 8
- KSS Mean (SD) [1, 14]: 3.2 (2.02)
- KSS Median [1, 14]: 2.0
- KSS Min [1, 14]: 1
- KSS Max [1, 15]: 9
- KSS Mean (SD) [1, 15]: 3.8 (1.82)
- KSS Median [1, 15]: 3.0
- KSS Min [1, 15]: 1
- KSS Max [1, 16]: 4
- KSS Mean (SD) [1, 16]: 2.5 (0.92)
- KSS Median [1, 16]: 3.0
- KSS Min [1, 16]: 1
- KSS Max [1, 17]: 9
- KSS Mean (SD) [1, 17]: 5.2 (1.72)
- KSS Median [1, 17]: 5.0
- KSS Min [1, 17]: 2
- KSS Max [1, 18]: 9
- KSS Mean (SD) [1, 18]: 6.1 (1.95)
- KSS Median [1, 18]: 6.0
- KSS Min [1, 18]: 3
- KSS Max [1, 19]: 7
- KSS Mean (SD) [1, 19]: 2.5 (1.47)
- KSS Median [1, 19]: 2.0
- KSS Min [1, 19]: 1
- KSS Max [1, 20]: 7
- KSS Mean (SD) [1, 20]: 3.3 (1.74)
- KSS Median [1, 20]: 3.0
- KSS Min [1, 20]: 1
- KSS Sleepy/Alert LS Mean [1, 21]: 8.01
- KSS Sleepy/Alert LS Mean Difference vs Placebo Estimate [1, 21]: −0.14
- KSS Sleepy/Alert LS Mean [1, 22]: 3.46
- KSS Sleepy/Alert LS Mean Difference vs Placebo Estimate [1, 22]: −0.44
- KSS Sleepy/Alert LS Mean [1, 23]: 3.24
- KSS Sleepy/Alert LS Mean Difference vs Placebo Estimate [1, 23]: −3.61
- KSS Sleepy/Alert LS Mean [1, 24]: 3.85
- KSS Sleepy/Alert LS Mean Difference vs Placebo Estimate [1, 24]: −4.30
- KSS Sleepy/Alert LS Mean [1, 25]: 2.51
- KSS Sleepy/Alert LS Mean Difference vs Placebo Estimate [1, 25]: −0.29
- KSS Sleepy/Alert LS Mean [1, 26]: 5.18
- KSS Sleepy/Alert LS Mean Difference vs Placebo Estimate [1, 26]: −3.32
- KSS Sleepy/Alert LS Mean [1, 27]: 6.07
- KSS Sleepy/Alert LS Mean Difference vs Placebo Estimate [1, 27]: −2.26
- KSS Sleepy/Alert LS Mean [1, 28]: 2.51
- KSS Sleepy/Alert LS Mean Difference vs Placebo Estimate [1, 28]: 0.01
- KSS Sleepy/Alert LS Mean [1, 29]: 3.29
- KSS Sleepy/Alert LS Mean Difference vs Placebo Estimate [1, 29]: 0.24
- KSS Sleepy/Alert LS Mean ([1]; HD: Compound A 112 mg, AVERAGE POST INFUSION START (2.75, 4.75, 6.75 AND 8.75 HOURS)): 4.58
- KSS Sleepy/Alert LS Mean ([1]; HD: Compound A 112 mg, AVERAGE PRIOR TO INFUSION START (14, 10, 6, 2 HOURS PREDOSE)): 2.95
- KSS Sleepy/Alert LS Mean [1, 30]: 1.64
- KSS Sleepy/Alert LS Mean Difference vs Placebo Estimate [1, 30]: −3.26
- KSS Sleepy/Alert LS Mean [1, 31]: 8.46
- KSS Sleepy/Alert LS Mean Difference vs Placebo Estimate [1, 31]: 0.31
- KSS Sleepy/Alert LS Mean [1, 32]: 4.01
- KSS Sleepy/Alert LS Mean Difference vs Placebo Estimate [1, 32]: 0.11
- KSS Sleepy/Alert LS Mean [1, 33]: 4.85
- KSS Sleepy/Alert LS Mean Difference vs Placebo Estimate [1, 33]: −2.00
- KSS Sleepy/Alert LS Mean [1, 34]: 6.46
- KSS Sleepy/Alert LS Mean Difference vs Placebo Estimate [1, 34]: −1.69
- KSS Sleepy/Alert LS Mean [1, 35]: 2.79
- KSS Sleepy/Alert LS Mean Difference vs Placebo Estimate [1, 35]: −0.01
- KSS Sleepy/Alert LS Mean [1, 36]: 7.79
- KSS Sleepy/Alert LS Mean Difference vs Placebo Estimate [1, 36]: −0.71
- KSS Sleepy/Alert LS Mean [1, 37]: 8.07
- KSS Sleepy/Alert LS Mean Difference vs Placebo Estimate [1, 37]: −0.26
- KSS Sleepy/Alert LS Mean [1, 38]: 2.79
- KSS Sleepy/Alert LS Mean Difference vs Placebo Estimate [1, 38]: 0.29
- KSS Sleepy/Alert LS Mean [1, 39]: 2.85
- KSS Sleepy/Alert LS Mean Difference vs Placebo Estimate [1, 39]: −0.20
- KSS Sleepy/Alert LS Mean ([1]; LD: Compound A 44 mg, AVERAGE POST INFUSION START (2.75, 4.75, 6.75 AND 8.75 HOURS)): 6.79
- KSS Sleepy/Alert LS Mean ([1]; LD: Compound A 44 mg, AVERAGE PRIOR TO INFUSION START (14, 10, 6, 2 HOURS PREDOSE)): 3.11
- KSS Sleepy/Alert LS Mean [1, 40]: 3.68
- KSS Sleepy/Alert LS Mean Difference vs Placebo Estimate [1, 40]: −1.22
- Effect on BP and pulse ([2]; Compound A 44 mg): minimal effect
- Drug-related TEAE of liver function test increased, number of subjects ([2]; Compound A 112 mg, mild intensity): 1 subject
- Serious adverse events (SAEs) ([2]; Compound A 44 and 112 mg treatments): no SAEs were observed
- Changes in DBP versus Compound A plasma concentration ([2]; change from time-matched baseline): appeared to increase with increasing concentration
- Tolerability ([2]; single dose 44 mg or 112 mg, slow infusion over 9 hours, healthy volunteers): well-tolerated with no major safety concerns; also recorded: well tolerated overall
